Source: patent US10597388B2, “Pyridazinone herbicides” (FMC CORPORATION, priority 2014, dated 2020)

Key:
Experiment in all cases: Test D controlled growth environment herbicide test, pre- and postemergence
Type in all cases: in vivo
[1] = system: Russian thistle (Salsola kali)
Procedure, shortened: (§1)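 Species sown in silt loam and sprayed preemergence, or grown in peat-based medium to 2–18 cm (1- to 4-leaf stage) and sprayed postemergence, with compounds in non-phytotoxic solvent plus surfactant. Visual injury scored versus controls after 14–21 d in a controlled environment, 0 (no effect) to 100 (complete control).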

[2] = system: blackgrass (Alopecurus myosuroides)
Procedure, shortened: as §1

[3] = system: bromegrass, downy (downy bromegrass, Bromus tectorum)
Procedure, shortened: as §1

[4] = system: chickweed (common chickweed, Stellaria media)
Procedure, shortened: as §1

[5] = system: deadnettle (henbit deadnettle, Lamium amplexicaule)
Procedure, shortened: as §1

[6] = system: foxtail, green (green foxtail, Setaria viridis)
Procedure, shortened: as §1

[7] = system: mustard, wild (wild mustard, Sinapis arvensis)
Procedure, shortened: as §1

[8] = system: oat, wild (wild oat, Avena fatua)
Procedure, shortened: as §1

[9] = system: oilseed rape (Brassica napus)
Procedure, shortened: as §1

[10] = system: ryegrass, Italian (Italian ryegrass, Lolium multiflorum)
Procedure, shortened: as §1

[11] = system: speedwell (bird's-eye speedwell, Veronica persica)
Procedure, shortened: as §1

[12] = system: wheat, spring (spring wheat, Triticum aestivum)
Procedure, shortened: as §1

[13] = system: wheat, winter (winter wheat, Triticum aestivum)
Procedure, shortened: as §1

[14] = Postemergence, 31 g ai/ha, scale 0 to 100 (0 no effect, 100 complete control)
[15] = Postemergence, 125 g ai/ha, visual rating on scale 0 (no effect) to 100 (complete control), 14 to 21 d
[16] = Postemergence, 250 g ai/ha, scale 0 to 100 (0 no effect, 100 complete control)
[17] = Preemergence, 62 g ai/ha, scale 0 to 100 (0 no effect, 100 complete control)
[18] = Preemergence, 125 g ai/ha, scale 0 to 100 (0 no effect, 100 complete control)
[19] = Preemergence, 250 g ai/ha, scale 0 to 100, 0 no effect, 100 complete control
[20] = postemergence, 62 g ai/ha, scale 0 to 100, 0 no effect, 100 complete control

Cc1ccc2sc(C)c(-c3c(OC(=O)OC(C)C)c(C)nn(C)c3=O)c2c1 [Compound 66]
Russian Thistle plant response rating [1, 14]: 75
Plant response rating, Russian Thistle [1, 15]: 75
Plant response rating, Russian Thistle [1, 16]: 80
Plant response rating (scale of 0 to 100), Russian Thistle ([1]; Preemergence, 31 g ai/ha): 0
Plant response rating, Russian Thistle [1, 17]: 20
Plant response rating, Russian Thistle [1, 18]: 60
Plant response rating, Russian Thistle [1, 19]: 90
Plant response rating, Russian Thistle [1, 20]: 80
Blackgrass plant response rating [2, 14]: 65
Plant response rating, Blackgrass [2, 15]: 75
Plant response rating, Blackgrass [2, 16]: 75
Plant response rating (scale of 0 to 100), Blackgrass ([2]; Preemergence, 31 g ai/ha): 25
Plant response rating, Blackgrass [2, 17]: 70
Plant response rating, Blackgrass [2, 18]: 75
Plant response rating, Blackgrass [2, 19]: 80
Plant response rating, Blackgrass [2, 20]: 70
Bromegrass, Downy plant response rating [3, 14]: 50
Plant response rating, Bromegrass, Downy [3, 15]: 65
Plant response rating, Bromegrass, Downy [3, 16]: 70
Plant response rating (scale of 0 to 100), Bromegrass, Downy ([3]; Preemergence, 31 g ai/ha): 15
Plant response rating, Bromegrass, Downy [3, 17]: 60
Plant response rating, Bromegrass, Downy [3, 18]: 80
Plant response rating, Bromegrass, Downy [3, 19]: 85
Plant response rating, Bromegrass, Downy [3, 20]: 60
Chickweed plant response rating [4, 14]: 75
Plant response rating, Chickweed [4, 15]: 100
Plant response rating, Chickweed [4, 16]: 100
Plant response rating (scale of 0 to 100), Chickweed ([4]; Preemergence, 31 g ai/ha): 90
Plant response rating, Chickweed [4, 17]: 100
Plant response rating, Chickweed [4, 18]: 100
Plant response rating, Chickweed [4, 19]: 100
Plant response rating, Chickweed [4, 20]: 85
Deadnettle plant response rating [5, 14]: 15
Plant response rating, Deadnettle [5, 15]: 35
Plant response rating, Deadnettle [5, 16]: 40
Plant response rating (scale of 0 to 100), Deadnettle ([5]; Preemergence, 31 g ai/ha): 15
Plant response rating, Deadnettle [5, 17]: 40
Plant response rating, Deadnettle [5, 18]: 55
Plant response rating, Deadnettle [5, 19]: 55
Plant response rating, Deadnettle [5, 20]: 15
Foxtail, Green plant response rating [6, 14]: 75
Plant response rating, Foxtail, Green [6, 15]: 90
Plant response rating, Foxtail, Green [6, 16]: 98
Plant response rating (scale of 0 to 100), Foxtail, Green ([6]; Preemergence, 31 g ai/ha): 15
Plant response rating, Foxtail, Green [6, 17]: 35
Plant response rating, Foxtail, Green [6, 18]: 65
Plant response rating, Foxtail, Green [6, 19]: 70
Plant response rating, Foxtail, Green [6, 20]: 80
Mustard, Wild plant response rating [7, 14]: 10
Plant response rating, Mustard, Wild [7, 15]: 55
Plant response rating, Mustard, Wild [7, 16]: 70
Plant response rating (scale of 0 to 100), Mustard, Wild ([7]; Preemergence, 31 g ai/ha): 0
Plant response rating, Mustard, Wild [7, 17]: 0
Plant response rating, Mustard, Wild [7, 18]: 0
Plant response rating, Mustard, Wild [7, 19]: 0
Plant response rating, Mustard, Wild [7, 20]: 40
Oat, Wild plant response rating [8, 14]: 85
Plant response rating, Oat, Wild [8, 15]: 100
Plant response rating, Oat, Wild [8, 16]: 100
Plant response rating (scale of 0 to 100), Oat, Wild ([8]; Preemergence, 31 g ai/ha): 75
Plant response rating, Oat, Wild [8, 17]: 85
Plant response rating, Oat, Wild [8, 18]: 85
Plant response rating, Oat, Wild [8, 19]: 90
Plant response rating, Oat, Wild [8, 20]: 95
Oilseed Rape plant response rating [9, 14]: 0
Plant response rating, Oilseed Rape [9, 15]: 65
Plant response rating, Oilseed Rape [9, 16]: 75
Plant response rating (scale of 0 to 100), Oilseed Rape ([9]; Preemergence, 31 g ai/ha): 35
Plant response rating, Oilseed Rape [9, 17]: 35
Plant response rating, Oilseed Rape [9, 18]: 35
Plant response rating, Oilseed Rape [9, 19]: 35
Plant response rating, Oilseed Rape [9, 20]: 20
Ryegrass, Italian plant response rating [10, 14]: 85
Plant response rating, Ryegrass, Italian [10, 15]: 95
Plant response rating, Ryegrass, Italian [10, 16]: 98
Plant response rating (scale of 0 to 100), Ryegrass, Italian ([10]; Preemergence, 31 g ai/ha): 80
Plant response rating, Ryegrass, Italian [10, 17]: 85
Plant response rating, Ryegrass, Italian [10, 18]: 90
Plant response rating, Ryegrass, Italian [10, 19]: 95
Plant response rating, Ryegrass, Italian [10, 20]: 95
Speedwell plant response rating [11, 14]: 55
Plant response rating, Speedwell [11, 15]: 70
Plant response rating, Speedwell [11, 16]: 75
Plant response rating (scale of 0 to 100), Speedwell ([11]; Preemergence, 31 g ai/ha): 75
Plant response rating, Speedwell [11, 17]: 100
Plant response rating, Speedwell [11, 18]: 100
Plant response rating, Speedwell [11, 19]: 100
Plant response rating, Speedwell [11, 20]: 70
Wheat, Spring plant response rating [12, 14]: 0
Plant response rating, Wheat, Spring [12, 15]: 0
Plant response rating, Wheat, Spring [12, 16]: 5
Plant response rating (scale of 0 to 100), Wheat, Spring ([12]; Preemergence, 31 g ai/ha): 0
Plant response rating, Wheat, Spring [12, 17]: 0
Plant response rating, Wheat, Spring [12, 18]: 5
Plant response rating, Wheat, Spring [12, 19]: 20
Plant response rating, Wheat, Spring [12, 20]: 0
Wheat, Winter plant response rating [13, 14]: 0
Plant response rating, Wheat, Winter [13, 15]: 0
Plant response rating, Wheat, Winter [13, 16]: 0
Plant response rating (scale of 0 to 100), Wheat, Winter ([13]; Preemergence, 31 g ai/ha): 0
Plant response rating, Wheat, Winter [13, 17]: 0
Plant response rating, Wheat, Winter [13, 18]: 0
Plant response rating, Wheat, Winter [13, 19]: 0
Plant response rating, Wheat, Winter [13, 20]: 0
